As usually defined, the EC50 is the concentration needed to bring the measured effect to its halfway point. The CC50 is the concentration at which the toxic effect on the cells reaches its halfway point.

Here are results for 8 molecules from patent publication US20220389007A1, “INHIBITORS OF HUMAN IMMUNODEFICIENCY VIRUS REPLICATION” (VIIV HEALTHCARE UK (No. 5) LIMITED, priority 2019, published 2022).

One series relates to recombinant NL4-3 virus. Put plainly: HIV cell culture assay (antiviral activity, luciferase readout). Type of series: cell-based. The conditions noted are these: Human immunodeficiency virus 1, NL43, MT2, MT-2 cells infected for 4-5 days with recombinant NL4-3 virus carrying Renilla luciferase. How it is done: HIV cell culture assay—MT-2 cells, 293T cells and the proviral DNA clone of NL4-3 virus were obtained from the NIH AIDS Research and Reference Reagent Program. MT-2 cells were propagated in RPMI 1640 media supplemented with 10% heat inactivated fetal bovine serum (FBS), […]. The 293T cells were propagated in DMEM media supplemented with 10% heat inactivated FBS, […]. A recombinant NL4-3 proviral clone, in which a section of the nef gene was replaced with the Renilla luciferase gene, was used to make the reference virus used in these studies. The recombinant virus was prepared through transfection of the recombinant NL4-3 proviral clone into 293T cells using Transit-293 Transfection Reagent from Mirus Bio LLC (Madison, WI). Supernatent was harvested after 2-3 days and the amount of virus present was titered in MT-2 cells using luciferase enzyme activity as a marker by measuring luciferase enzyme activity. Luciferase was quantitated using the EnduRen Live Cell Substrate from Promega (Madison, Wis.). Antiviral activities of compounds toward the recombinant virus were quantified by measuring luciferase activity in MT-2 cells infected for 4-5 days with the recombinant virus in the presence of serial dilutions of the compound.
The 50% effective concentration (EC50) was calculated by using the exponential form of the median effect equation where (Fa)=1/[1+(ED50/drug conc.)m] (Johnson VA, Byington RT. Infectivity Assay. In Techniques in HIV Research. ed. Aldovini A, Walker BD. 71-76. New York: Stockton Press. 1990). The 50% inhibitory concentration (EC50) was calculated by using the exponential form of the median effect equation where percent inhibition=1/[1+(EC50/drug concentration)m], where m is a parameter that reflects the slope of the concentration-response curve.

A short description of series [1]: Compound cytotoxicity, XTT-based colorimetric assay. Format: cell-based. The conditions noted are these: human; uninfected MT2 cells, day 4, XTT assay. Here is the method: Compound cytotoxicity and the corresponding CC50 values were determined using the same protocol as described in the antiviral assay except that uninfected cells were used. Cytotoxicity was assessed on day 4 in uninfected MT2 cells by using a XTT (2,3-bis[2-Methoxy-4-nitro-5-sulfophenyl]-2H-tetrazolium-5-carboxyanilide inner salt)-based colorimetric assay (Sigma-Aldrich, St Louis, Mo.).

Molecules are shown by their SMILES.

For the molecule `Cn1nc(NS(C)(=O)=O)c2c(Cl)ccc(-n3c([C@H](Cc4cc(F)cc(F)c4)NC(=O)Cn4nc(C(F)F)c5c4C(F)(F)[C@@H]4C[C@H]54)nc4nc(-c5cnn(CCF)c5)ccc4c3=O)c21` (atropisomer, axis not shown; (P)) [Example 76, N-((S)-1-((3P)-3-(4-chloro-1-methyl-3-(methylsulfonamido)-1H-indazol-7-yl)-7-(1-(2-fluoroethyl)-1H-pyrazol-4-yl)-4-oxo-3,4-dihydropyrido[2,3-d]pyrimidin-2-yl)-2-(3,5-difluorophenyl)ethyl)-2-((3bS,4aR)-3-(difluoromethyl)-5,5-difluoro-3b,4,4a,5-tetrahydro-1H-cyclopropa[3,4]cyclopenta[1,2-c]pyrazol-1-yl)acetamide], the EC50 in the series on recombinant NL4-3 virus turned out to be 0.11 nM. Further, the CC50 at 4 day in series [1] is greater than 100 nM.
Regarding `Cn1nc(NS(C)(=O)=O)c2c(Cl)ccc(-n3c([C@H](Cc4cc(F)cc(F)c4)NC(=O)Cn4nc(C(F)F)c5c4C(F)(F)[C@@H]4C[C@H]54)nc4nc(-c5cccc(C(F)(F)F)n5)ccc4c3=O)c21` (atropisomer, axis not shown; (P)) [Example 9, N-((S)-1-((3P)-3-(4-chloro-1-methyl-3-(methylsulfonamido)-1H-indazol-7-yl)-4-oxo-7-(6-(trifluoromethyl)pyridin-2-yl)-3,4-dihydropyrido[2,3-d]pyrimidin-2-yl)-2-(3,5-difluorophenyl)ethyl)-2-((3bS,4aR)-3-(difluoromethyl)-5,5-difluoro-3b,4,4a,5-tetrahydro-1H-cyclopropa[3,4]cyclopenta[1,2-c]pyrazol-1-yl)acetamide], the EC50 in the series with recombinant NL4-3 virus is 0.065 nM. The molecule further registered a CC50 at 4 day in series [1] greater than 100 nM.
For the molecule `Cn1nc(NS(C)(=O)=O)c2c(Cl)ccc(-n3c([C@H](Cc4cc(F)cc(F)c4)NC(=O)Cn4nc(C(F)F)c5c4C(F)(F)[C@@H]4C[C@H]54)nc4ncc(-c5nccc(C(F)F)n5)cc4c3=O)c21` (atropisomer, axis not shown; (P)) [Example 2, N-((S)-1-((3P)-3-(4-chloro-1-methyl-3-(methylsulfonamido)-1H-indazol-7-yl)-6-(4-(difluoromethyl)pyrimidin-2-yl)-4-oxo-3,4-dihydropyrido[2,3-d]pyrimidin-2-yl)-2-(3,5-difluorophenyl)ethyl)-2-((3bS,4aR)-3-(difluoromethyl)-5,5-difluoro-3b,4,4a,5-tetrahydro-1H-cyclopropa[3,4]cyclopenta[1,2-c]pyrazol-1-yl)acetamide], the EC50 with recombinant NL4-3 virus was 0.031 nM. Also, the CC50 at 4 day in series [1] is greater than 100 nM.
Consider `Cn1nc(NS(C)(=O)=O)c2c(Cl)ccc(-n3c([C@H](Cc4cc(F)cc(F)c4)NC(=O)Cn4nc(C(F)F)c5c4C(F)(F)[C@@H]4C[C@H]54)nc4nc(-c5ccc(F)c(C(F)(F)F)c5)ccc4c3=O)c21` (atropisomer, axis not shown; (P)) [Example 19, N-((S)-1-((3P)-3-(4-chloro-1-methyl-3-(methylsulfonamido)-1H-indazol-7-yl)-7-(4-fluoro-3-(trifluoromethyl)phenyl)-4-oxo-3,4-dihydropyrido[2,3-d]pyrimidin-2-yl)-2-(3,5-difluorophenyl)ethyl)-2-((3bS,4aR)-3-(difluoromethyl)-5,5-difluoro-3b,4,4a,5-tetrahydro-1H-cyclopropa[3,4]cyclopenta[1,2-c]pyrazol-1-yl)acetamide], for which the EC50 with recombinant NL4-3 virus was determined as 0.23 nM. Moreover, in series [1], the CC50 at 4 day is greater than 100 nM.
For the molecule `Cn1nc(NS(C)(=O)=O)c2c(Cl)ccc(-n3c([C@H](Cc4cc(F)cc(F)c4)NC(=O)Cn4nc(C(F)F)c5c4C(F)(F)[C@@H]4C[C@H]54)nc4nc(-c5csc(C(F)(F)F)n5)ccc4c3=O)c21` (atropisomer, axis not shown; (P)) [Example 4, N-((S)-1-((3P)-3-(4-chloro-1-methyl-3-(methylsulfonamido)-1H-indazol-7-yl)-4-oxo-7-(2-(trifluoromethyl)thiazol-4-yl)-3,4-dihydropyrido[2,3-d]pyrimidin-2-yl)-2-(3,5-difluorophenyl)ethyl)-2-((3bS,4aR)-3-(difluoromethyl)-5,5-difluoro-3b,4,4a,5-tetrahydro-1H-cyclopropa[3,4]cyclopenta[1,2-c]pyrazol-1-yl)acetamide], in the series with recombinant NL4-3 virus, the EC50 was determined as 0.055 nM. The half-maximal cytotoxic concentration (CC50) at 4 day in series [1] was greater than 100 nM.
Consider `Cn1nc(NS(C)(=O)=O)c2c(Cl)ccc(-n3c([C@H](Cc4cc(F)cc(F)c4)NC(=O)Cn4nc(C(F)F)c5c4C(F)(F)[C@@H]4C[C@H]54)nc4nc(-c5ccncc5)ccc4c3=O)c21` (atropisomer, axis not shown; (P)) [Example 34, N-((S)-1-((3P)-3-(4-chloro-1-methyl-3-(methylsulfonamido)-1H-indazol-7-yl)-4-oxo-7-(pyridin-4-yl)-3,4-dihydropyrido[2,3-d]pyrimidin-2-yl)-2-(3,5-difluorophenyl)ethyl)-2-((3bS,4aR)-3-(difluoromethyl)-5,5-difluoro-3b,4,4a,5-tetrahydro-1H-cyclopropa[3,4]cyclopenta[1,2-c]pyrazol-1-yl)acetamide], for which, in the series on recombinant NL4-3 virus, the EC50 worked out at 0.07 nM. Also, the CC50 at 4 day in series [1] is greater than 100 nM.
With `Cn1nc(NS(C)(=O)=O)c2c(Cl)ccc(-n3c([C@H](Cc4cc(F)cc(F)c4)NC(=O)Cn4nc(C(F)F)c5c4C(F)(F)[C@@H]4C[C@H]54)nc4nc(-c5cccc(C(F)(F)F)c5)ccc4c3=O)c21` (atropisomer, axis not shown; (P)) [Example 24, N-((S)-1-((3P)-3-(4-chloro-1-methyl-3-(methylsulfonamido)-1H-indazol-7-yl)-4-oxo-7-(3-(trifluoromethyl)phenyl)-3,4-dihydropyrido[2,3-d]pyrimidin-2-yl)-2-(3,5-difluorophenyl)ethyl)-2-((3bS,4aR)-3-(difluoromethyl)-5,5-difluoro-3b,4,4a,5-tetrahydro-1H-cyclopropa[3,4]cyclopenta[1,2-c]pyrazol-1-yl)acetamide], the EC50 in the series on recombinant NL4-3 virus was 0.16 nM. This molecule also yielded a CC50 at 4 day in series [1] greater than 100 nM.
On to `Cn1nc(NS(C)(=O)=O)c2c(Cl)ccc(-n3c([C@H](Cc4cc(F)cc(F)c4)NC(=O)Cn4nc(C(F)F)c5c4C(F)(F)[C@@H]4C[C@H]54)nc4nc(-c5cccc(C(C)(F)F)n5)ccc4c3=O)c21` (atropisomer, axis not shown; (P)) [Example 12, N-((S)-1-((3P)-3-(4-chloro-1-methyl-3-(methylsulfonamido)-1H-indazol-7-yl)-7-(6-(1,1-difluoroethyl)pyridin-2-yl)-4-oxo-3,4-dihydropyrido[2,3-d]pyrimidin-2-yl)-2-(3,5-difluorophenyl)ethyl)-2-((3bS,4aR)-3-(difluoromethyl)-5,5-difluoro-3b,4,4a,5-tetrahydro-1H-cyclopropa[3,4]cyclopenta[1,2-c]pyrazol-1-yl)acetamide], for which the EC50 in the series with recombinant NL4-3 virus came to 0.06 nM. In series [1], this molecule showed a CC50 at 4 day greater than 100 nM.
